The values that follow come from patent publication EP3322687B1, “2-BENZYL-INDANONE COMPOUNDS AS ANTICANCER AGENT AND A PROCESS FOR PREPARATION THEREOF” (Council of Scientific and Industrial Research, priority 2015, dated 2017).

The test system of data set [1] is Ehrlich Ascites Carcinoma (EAC). In kind it is in vivo, Swiss mice. How it is done:
Ehrlich ascites carcinoma (EAC) cells were collected from the peritoneal cavity of the Swiss mice harbouring 8-10 days old ascitic tumor. 1x10^7 EAC cells were injected intraperitoneally in Swiss mice selected for the experiment on day 0. The next day, animals were randomized and divided into different groups. The treatment groups contained 7 animals each and control group contained 10 animals. The treatment group was treated with 20 mg/kg of Compound 2 intra-peritoneally from day 1-9. One more of the treatment group received 5-fluorouracil (20 mg/kg, i.p) and it served as positive control. The tumor bearing control group was similarly administered normal saline (0.2 ml, i.p.). On day 12, animals were sacrificed and ascitic fluid was collected from peritoneal cavity of each mouse for the evaluation of tumor growth. Percent tumor growth inhibition was calculated based on the total number of tumor cells present in the peritoneal cavity as on day 12 of the experiment using the following formula. Percent tumor growth inhibition = (Av.no.of cells in control group−Av.no.of cells in treated group)/(Av.no.of cells in control group) × 100 [formula]

Another data set has as its system MCF-7 (Breast cancer). The data set can be described thus: Sulforhodamine B cytotoxicity assay. In kind it is cell-based. As to conditions: Homo sapiens, MCF7, 48 h, read-out: Human cancer cell lines IC50 MCF-7 (Breast cancer). How it is done: (§1) The benzyl compounds were evaluated by Sulforhodamine B Assay as per reported method [Skehan etal., J. Natl. Cancer Inst.1990, 82, 1107]. The human cancer cell lines procured from National Cancer Institute, Frederick, U. S. A. were used in present study. Cells were grown in tissue culture flasks in complete growth medium (RPMI-1640 medium with 2 mM glutamine, pH 7.4 supplemented with 10% fetal bovine serum, 100 µg/ml streptomycin and 100 units/ml penicillin) in a carbon dioxide incubator (37°C, 5% CO2, 90% RH). The cells at subconfluent stage were harvested from the flask by treatment with trypsin (0.05% in PBS (pH 7.4) containing 0.02% EDTA). Cells with viability of more than 98%, as determined by trypan blue exclusion, were used for determination of cytotoxicity. The cell suspension required concentration of cells was prepared in complete growth medium. Stock solution of 2x10^-2 M of compounds were prepared in DMSO and further dilution was carried out complete growth medium containing 50µg/ml of gentamycin to obtained working test solution of required concentration. In vitro cytotoxicity against various human cancer cell lines was determined using 96-well cell culture plates. The 100µl of cell suspension was added to each well of the 96-well cell culture plates. The cells were allowed to grow in CO2 incubator (37°C, 5% CO2, 90% RH) for 24 hours. The test materials in complete growth medium (100 µl) were added after 24 hours incubation to the wells containing cell suspension. The plates were further incubated for 48 hours (37°C in an atmosphere of 5% CO2 and 90% relative humidity) in a carbon dioxide incubator after addition of test material and then the cell growth was stopped by gently layering trichloroacetic acid (50% TCA, 50 µl) on top of the medium in all the wells. The plates were incubated at 4°C for one hour to fix the cells attached to the bottom of the wells. The liquid of all the wells was gently pipetted out and discarded. The plates were washed five times with distilled water to remove TCA, growth medium low molecular weight metabolites, serum proteins etc. and air - dried. Cell growth was measured by staining with sulforhodamine B dye. The adsorbed dye was dissolved in Tris-HCl Buffer (100 µl/well, 0.01M, pH 10.4) and plates were gently stirred for 10 minutes on a mechanical stirrer. The optical density (OD) was recorded on ELISA reader at 540nm. Paclitaxel (Taxol), and 5-Fluorouracil were used as positive controls (Standard drugs).

A further data set relates to HCT-116 (Colon). The data set can be described thus: Sulforhodamine B cytotoxicity assay. Type of data set: cell-based. As to conditions: Homo sapiens, HCT-116, 48 h, read-out: Human cancer cell lines IC50 HCT-116 (Colon). How it is done:
as §1

The next data set has as its system A549 (Lung). The data set can be described thus: Sulforhodamine B cytotoxicity assay. In kind it is cell-based. The note with it: Homo sapiens, A549, 48 h, read-out: Human cancer cell lines IC50 A549 (Lung). How it is done: as §1
The next data set relates to THP-1 (Leukemia). Briefly: Sulforhodamine B cytotoxicity assay. As to conditions: Homo sapiens, THP-1, 48 h, read-out: Human cancer cell lines IC50 THP-1 (Leukemia). Type of data set: cell-based. How it is done:
as §1

Another data set relates to T-47D (Breast cancer). Briefly: Sulforhodamine B cytotoxicity assay. In kind it is cell-based. As to conditions: Homo sapiens, T47D, 48 h, read-out: Human cancer cell lines IC50 T-47D (Breast cancer). How it is done:
as §1

pIC50: −log10 of the molar value.

Turning to `COc1cc(C2c3c(cc(OC)c(OC)c3OC)C(=O)C2Cc2ccc3c(c2)OCO3)cc(OC)c1OC` (stereo not shown) [Compound 2, 2-(3",4"-methylenedioxybenzyl)-3-(3',4',5'-trimethoxyphenyl)-4,5,6-trimethoxy-indan-1-one], in data set [1] (20 mg/kg i/p day 1-9, Day 12), the “%Tumor Growth Inhibition” value is 67.64%. Moreover, the “Av, Volume of ascitic fluid” value in data set [1] (20 mg/kg i/p day 1-9, Day 12) amounted to 6.31 mL. Besides, the “Av. No. of tumor cells” value in data set [1] (20 mg/kg i/p day 1-9, Day 12) is 44.78 x 10^7. In addition, in data set [1] (20 mg/kg i/p day 1-9, Day 12), the “Av. Weight of ascitic fluid” value came to 6.02 g. For the same compound, the “% Tumor cell growth” value in data set [1] (20 mg/kg i/p day 1-9, Day 12, control = 100) is on record as 32.36%. In addition, the Mortality in data set [1] (20 mg/kg i/p day 1-9, Day 12, dead/total animals) is recorded as 0/7. In addition, in data set [1] (20 mg/kg i/p day 1-9, EAC-bearing female Swiss mice, Day 1), the “Body weight Day 1” value stood at 21.0 g. Further, the “Body weight Day 5” value in data set [1] (20 mg/kg i/p day 1-9, EAC-bearing female Swiss mice, Day 5) is on record as 21.86 g. The “Body weight Day 9” value in data set [1] (20 mg/kg i/p day 1-9, EAC-bearing female Swiss mice, Day 9) was determined as 22.28 g. In data set [1] (20 mg/kg i/p day 1-9, EAC-bearing female Swiss mice, Day 12), the “Body weight Day 12” value is 22.66 g. Also, the “better activity (in-vivo) over the parent compound 12” value in data set [1] (Ehrlich ascites carcinoma, 20mg/kg dose, relative to compound 12) amounted to 48.72%. Further, the pIC50 with MCF-7 (Breast cancer) is 5.52; in the data set with HCT-116 (Colon), 5.52; in the data set on A549 (Lung), 5.70; with THP-1 (Leukemia), 6.00; in the data set on T-47D (Breast cancer), above 6.00.
